Test results as given in US6841661B2, “Glycopeptide antibacterial compounds, compositions containing same and methods of using same” (Princeton Univerisity, priority 1999, dated 2005).

Key:
[1] = test system: E. faecium CL 5242 (VanA); assay: microbe, parasite or virus in culture; type: cell-based; design: CL5242 (in vitro testing): unit not given here; details: Tables 7 and 8; unit not given
Excerpt: (§1) National Committee for Clinical Laboratory Standards (NCCLS) guidelines [Methods for Dilution Antimicrobial Susceptibility Tests for Bacteria that Grow Aerobically-Fourth Edition; Approved Standard (NCCLS Document M7-A4, January 1997)] are used to establish the assay, although variations are made to optimize the published method according to the specific needs of the present investigation.
(§2) The test panel currently includes eight enterococci and 13 staphylococci, which are selected based upon their antibiotic susceptibility profiles. The methicillin-sensitive Staphylococcus aureus (MSSA) strain MB2985 (Smith isolate) is used to assesses the potential for serum protein binding of the compounds. The paired Gram-negative strains ASP #49 (envA-) and ASP #50 (envA+) (M. Salvatore/N. Lee) are included to judge membrane effects. Table 3 presents a detailed description of the strains included in the panel, including some of the sources of the strains of bacteria.
(§3) The glycopeptide antibiotic teicoplanin is included whenever possible.
(§4) TSB, containing 10% HS* for vancomycin intermediate S. aurcus/methicillin-resistant S. aureus (VISA/MRSA) strains, is inoculated from an appropriate source (frozen broth or agar slant) and grown approximately 17 hr at 35° C. with shaking at 220 rpm. Cultures are grown in tubes with a volume of 5 ml for enterococci and 2 ml for all other strains.
(§5) Four milliliter (4 ml) overnight culture is added to 36 ml physiological saline to obtain tenfold dilutions (enterococci). Overnight culture (0.4 ml) is added to 39.6 ml saline to obtain 100-fold dilutions (all strains except enterococci). Diluted cultures are maintained on ice until time of inoculation of test plates.
(§6) The number of CFU/mL is determined on BHI agar plates, although this is not done routinely because titers of overnight cultures are relatively constant. The test media include: • BHI for enterococci and VISA/MRSA; • MH II (i.e., cation-adjusted Mueller-Hinton broth) for MRS, MSS and E. coli.; • MH II+HSA for MSSA is prepared as follows: • a. 2×MHII+86mg/ml HSA • b. Dissolve 4.3 g HSA in 50 ml autoclaved 2x MH II. • c. pH to 7.0 by adding 2M MOPS, sodium. • d. Filter sterilize using 0.22 μm Coming cellulose acetate filter, used because of reported low protein binding. • e. 1×MH II+43 mg/ml HSA • f. Dilute the 2×medium twofold and filter as above. 5.8.6. Preparation of Test Plates
(§7) Using a Denley liquid handling system (or similar automatic device), 100 μ1×medium is added to each well in columns 2-12 of a 96-well microtiter dish. Using a multichannel pipettor, 100 μl 2×medium is added to each well in column 1. Plates may be filled on the day prior to assay, wrapped in plastic bags and refrigerated.
(§8) Vancomycin, Schering 29482, and teicoplanin are prepared on a weight per volume basis using 10 mM 3-(N-morpholino)propane-sulfonic acid (MOPS) buffer pH 7. Test compounds are received in solution in appropriate solvent (typically as 1 mg/ml in DMSO) or are dissolved in appropriate solvent prior to further dilution in 10 mM MOPS buffer, ph7. Consistent with NCCLS guidelines, antibiotics are handled aseptically but are not otherwise sterilized.
(§9) 100 μl appropriately diluted antibiotic solution is added to the first well of the designated row of the 96-well microtiter dish and serially diluted by twofold across the row using the Denley liquid handling system. With the aid of a Dynatech NEC 2000 inoculator, each well of the microtiter dish is inoculated with 1.5 μl diluted overnight culture, yielding approximately 1-5×10^6 CFU/ml for enterococci and approximately 3-7×10^5 CFU/ml for all other strains. Dishes are placed in stacks of no more than five, wrapped in plastic bags and incubated at 35° C. • Indication of result(s) type (% INH, IC50, Zone size, etc.) • MIC=minimum inhibitory concentration ps 5.8.9. Interpretation of the Results on the Basis of Activity […]

[2] = test system: E. faecium CL 4931 (VanA); assay: microbe, parasite or virus in culture; type: cell-based; design: CL4931 (in vitro testing): unit not given here; details: Tables 7 and 8; unit not given
Excerpt: as §1, §2, §3, §4, §5, §6, §7, §8, §9

[3] = test system: E. faecium CL 5053 (VanA); assay: microbe, parasite or virus in culture; type: cell-based; design: CL5053 (in vitro testing): unit not given here; details: Tables 7 and 8; unit not given
Excerpt: as §1, §2, §3, §4, §5, §6, §7, §8, §9

[4] = test system: E. faecalis CL 4877 (VanB); assay: microbe, parasite or virus in culture; type: cell-based; design: CL4877 (in vitro testing): unit not given here; details: Tables 7 and 8; unit not given
Excerpt: as §1, §2, §3, §4, §5, §6, §7, §8, §9

[5] = test system: CL 4931, CL 5053, CL 5242 and CL 4877; type: cell-based, E. faecium, E. faecalis; design: unit not given here; details: mean of CL4931, CL5053, CL5242, CL4877; unit not given
Excerpt: as §1, §2, §3, §4, §5, §6, §7, §8, §9

CNC(CC(C)C)C(=O)NC1C(=O)NC(CC(N)=O)C(=O)NC2C(=O)NC3C(=O)NC(C(=O)NC(C(=O)O)c4cc(O)cc(O)c4-c4cc3ccc4O)C(O)c3ccc(c(Cl)c3)Oc3cc2cc(c3OC2OC(CNCc3ccco3)C(O)C(O)C2OC2CC(C)(NCc3ccc(OCc4ccc(Cl)c(Cl)c4)cc3)C(O)C(C)O2)Oc2ccc(cc2Cl)C1O (stereo not drawn) [Compound 145]
CL5242 (in vitro testing) [1]: 1
CL4931 (in vitro testing) [2]: 8
CL5053 (in vitro testing) [3]: 8
CL4877 (in vitro testing) [4]: 0.5
Mean [5]: 4.4

CNC(CC(C)C)C(=O)NC1C(=O)NC(CC(N)=O)C(=O)NC2C(=O)NC3C(=O)NC(C(=O)NC(C(=O)O)c4cc(O)cc(O)c4-c4cc3ccc4O)C(O)c3ccc(c(Cl)c3)Oc3cc2cc(c3OC2OC(CNCCO)C(O)C(O)C2OC2CC(C)(NCc3ccc(OCc4ccc(Cl)c(Cl)c4)cc3)C(O)C(C)O2)Oc2ccc(cc2Cl)C1O (stereo not drawn) [Compound 146]
CL5242 (in vitro testing) [1]: 1
CL4931 (in vitro testing) [2]: 8
CL5053 (in vitro testing) [3]: 8
CL4877 (in vitro testing) [4]: 0.5
Mean [5]: 4.4

CNCC1OC(Oc2c3cc4cc2Oc2ccc(cc2Cl)C(O)C2NC(=O)C(NC(=O)C4NC(=O)C(CC(N)=O)NC(=O)C(NC(=O)C(CC(C)C)NC)C(O)c4ccc(c(Cl)c4)O3)c3ccc(O)c(c3)-c3c(O)cc(O)cc3C(C(=O)O)NC2=O)C(OC2CC(C)(NCc3ccc(OCc4ccc(Cl)c(Cl)c4)cc3)C(O)C(C)O2)C(O)C1O (stereo not drawn) [Compound 147]
CL5242 (in vitro testing) [1]: 2
CL4931 (in vitro testing) [2]: 4
CL5053 (in vitro testing) [3]: 8
CL4877 (in vitro testing) [4]: 4
Mean [5]: 4.5

CCCNCC1OC(Oc2c3cc4cc2Oc2ccc(cc2Cl)C(O)C2NC(=O)C(NC(=O)C4NC(=O)C(CC(N)=O)NC(=O)C(NC(=O)C(CC(C)C)NC)C(O)c4ccc(c(Cl)c4)O3)c3ccc(O)c(c3)-c3c(O)cc(O)cc3C(C(=O)O)NC2=O)C(OC2CC(C)(NCc3ccc(OCc4ccc(Cl)c(Cl)c4)cc3)C(O)C(C)O2)C(O)C1O (stereo not drawn) [Compound 148]
CL5242 (in vitro testing) [1]: 1
CL4931 (in vitro testing) [2]: 8
CL5053 (in vitro testing) [3]: 8
CL4877 (in vitro testing) [4]: 1
Mean [5]: 4.5

CNC(CC(C)C)C(=O)NC1C(=O)NC(CC(N)=O)C(=O)NC2C(=O)NC3C(=O)NC(C(=O)NC(C(=O)O)c4cc(O)cc(O)c4-c4cc3ccc4O)C(O)c3ccc(c(Cl)c3)Oc3cc2cc(c3OC2OC(CNCc3ccc(Cl)cc3)C(O)C(O)C2OC2CC(C)(NCc3ccc(OCc4ccc(Cl)c(Cl)c4)cc3)C(O)C(C)O2)Oc2ccc(cc2Cl)C1O (stereo not drawn) [Compound 149]
CL5242 (in vitro testing) [1]: 2
CL4931 (in vitro testing) [2]: 8
CL5053 (in vitro testing) [3]: 8
CL4877 (in vitro testing) [4]: 0.25
Mean [5]: 4.6

C=CCNCC1OC(Oc2c3cc4cc2Oc2ccc(cc2Cl)C(O)C2NC(=O)C(NC(=O)C4NC(=O)C(CC(N)=O)NC(=O)C(NC(=O)C(CC(C)C)NC)C(O)c4ccc(c(Cl)c4)O3)c3ccc(O)c(c3)-c3c(O)cc(O)cc3C(C(=O)O)NC2=O)C(OC2CC(C)(NCc3ccc(OCc4ccc(Cl)c(Cl)c4)cc3)C(O)C(C)O2)C(O)C1O (stereo not drawn) [Compound 150]
CL5242 (in vitro testing) [1]: 2
CL4931 (in vitro testing) [2]: 8
CL5053 (in vitro testing) [3]: 8
CL4877 (in vitro testing) [4]: 4
Mean [5]: 5.5

CNC(CC(C)C)C(=O)NC1C(=O)NC(CC(N)=O)C(=O)NC2C(=O)NC3C(=O)NC(C(=O)NC(C(=O)O)c4cc(O)cc(O)c4-c4cc3ccc4O)C(O)c3ccc(c(Cl)c3)Oc3cc2cc(c3OC2OC(CNC(=O)Cc3ccccc3)C(O)C(O)C2OC2CC(C)(NCc3ccc(OCc4ccc(Cl)c(Cl)c4)cc3)C(O)C(C)O2)Oc2ccc(cc2Cl)C1O (stereo not drawn) [Compound 151]
CL5242 (in vitro testing) [1]: 2
CL4931 (in vitro testing) [2]: 8
CL5053 (in vitro testing) [3]: 16
CL4877 (in vitro testing) [4]: 0.5
Mean [5]: 6.6

CNC(CC(C)C)C(=O)NC1C(=O)NC(CC(N)=O)C(=O)NC2C(=O)NC3C(=O)NC(C(=O)NC(C(=O)O)c4cc(O)cc(O)c4-c4cc3ccc4O)C(O)c3ccc(c(Cl)c3)Oc3cc2cc(c3OC2OC(CNCc3ccccc3Cl)C(O)C(O)C2OC2CC(C)(NCc3ccc(OCc4ccc(Cl)c(Cl)c4)cc3)C(O)C(C)O2)Oc2ccc(cc2Cl)C1O (stereo not drawn) [Compound 153]
CL5242 (in vitro testing) [1]: 4
CL4931 (in vitro testing) [2]: 8
CL5053 (in vitro testing) [3]: 16
CL4877 (in vitro testing) [4]: 0.12
Mean [5]: 7.0

CNC(CC(C)C)C(=O)NC1C(=O)NC(CC(N)=O)C(=O)NC2C(=O)NC3C(=O)NC(C(=O)NC(C(=O)O)c4cc(O)cc(O)c4-c4cc3ccc4O)C(O)c3ccc(c(Cl)c3)Oc3cc2cc(c3OC2OC(CNCC3CCNCC3)C(O)C(O)C2OC2CC(C)(NCc3ccc(OCc4ccc(Cl)c(Cl)c4)cc3)C(O)C(C)O2)Oc2ccc(cc2Cl)C1O (stereo not drawn) [Compound 155]
CL5242 (in vitro testing) [1]: 4
CL4931 (in vitro testing) [2]: 16
CL5053 (in vitro testing) [3]: 16
CL4877 (in vitro testing) [4]: 1
Mean [5]: 9.3

CNC(CC(C)C)C(=O)NC1C(=O)NC(CC(N)=O)C(=O)NC2C(=O)NC3C(=O)NC(C(=O)NC(C(=O)O)c4cc(O)cc(O)c4-c4cc3ccc4O)C(O)c3ccc(c(Cl)c3)Oc3cc2cc(c3OC2OC(CNCC3CCCCO3)C(O)C(O)C2OC2CC(C)(NCc3ccc(OCc4ccc(Cl)c(Cl)c4)cc3)C(O)C(C)O2)Oc2ccc(cc2Cl)C1O (stereo not drawn) [Compound 156]
CL5242 (in vitro testing) [1]: 2
CL4931 (in vitro testing) [2]: 16
CL5053 (in vitro testing) [3]: 16
CL4877 (in vitro testing) [4]: 4
Mean [5]: 9.5

CNC(CC(C)C)C(=O)NC1C(=O)NC(CC(N)=O)C(=O)NC2C(=O)NC3C(=O)NC(C(=O)NC(C(=O)O)c4cc(O)cc(O)c4-c4cc3ccc4O)C(O)c3ccc(c(Cl)c3)Oc3cc2cc(c3OC2OC(CNCCC#N)C(O)C(O)C2OC2CC(C)(NCc3ccc(OCc4ccc(Cl)c(Cl)c4)cc3)C(O)C(C)O2)Oc2ccc(cc2Cl)C1O (stereo not drawn) [Compound 157]
CL5242 (in vitro testing) [1]: 4
CL4931 (in vitro testing) [2]: 16
CL5053 (in vitro testing) [3]: 16
CL4877 (in vitro testing) [4]: 4
Mean [5]: 10.0

CNC(CC(C)C)C(=O)NC1C(=O)NC(CC(N)=O)C(=O)NC2C(=O)NC3C(=O)NC(C(=O)NC(C(=O)O)c4cc(O)cc(O)c4-c4cc3ccc4O)C(O)c3ccc(c(Cl)c3)Oc3cc2cc(c3OC2OC(CNCc3ccc(Cl)c(Cl)c3)C(O)C(O)C2OC2CC(C)(NCc3ccc(OCc4ccc(Cl)c(Cl)c4)cc3)C(O)C(C)O2)Oc2ccc(cc2Cl)C1O (stereo not drawn) [Compound 158]
CL5242 (in vitro testing) [1]: 4
CL4931 (in vitro testing) [2]: 16
CL5053 (in vitro testing) [3]: 16
CL4877 (in vitro testing) [4]: 4
Mean [5]: 10.0
